Where two headings read alike, the source gives them in different places.
Experiments:
[1] = tested on: SH-SY5Y cells; assay: SH-SY5Y cytotoxicity counter-screen (ATP content assay); type: cell-based, Human; conditions: for SH-SY5Y % Max. Resp.: Table 2, SH-SY5Y, inact. = no significant activity at 46 µM; for SH-SY5Y % M. Res.: Inact. = no significant activity at 46 µM
Procedure: Human neuroblastoma SH-SY5Y cell line (Catalog No. CRL-2266) was purchased from ATCC (Manassas, VA). SH-SY5Y cell line was cultured in 175-cm^2 tissue culture flasks (Costar, Cambridge, MA) with 30 ml of growth medium at 37°C in a 5% CO2 humidified atmosphere. Growth medium was made with Dulbecco's Modified Eagle Medium: Nutrient Mixture F-12 with 10% fetal bovine serum (FBS). Growth medium was replaced every other day and cells were passed at 75% confluence.
(§1) The ATPLite assay kit, consisting of luciferase/luciferin and detergent, was used to quantitate cellular ATP levels as a marker for cell viability (Table 1). For assay development, hyphal fragments or conidia in PBS were plated in a seeding density of 3,750, 7,500 and 15,000 cellular particles/well with a final volume of 5 µl/well using the Multidrop-Combi dispenser in white 1536-well plates. Conidia or hyphae fragments were incubated for 24 h at 37°C in a 5% CO2 humidified atmosphere. ATPLite detection reagents were added at 4 µl/well. The assay plates were incubated at room temperature for 15 minutes before reading luminescence intensity on a ViewLux plate reader (Perkin Elmer, Waltham, MA). Conidia suspended in RPMI medium were inoculated at concentrations of 62.5, 125 and 250 conidia/well with a final volume of 5 µl/well in white 1536-well plates. The conidia assay was developed and optimized in the same way as the hyphal assay.
Two small known compound libraries including the LOPAC (1280 compounds) and approved drugs (4096 compounds) were screened in parallel using the above optimized assays for hyphae and conidia in 1536-well plates (Fig. 4). […] A mammalian SH-SY5Y cell line was used in parallel as a counter-screen with the same ATP content assay kit to assess the specificity of these compounds for E. rostratum.

[2] = tested on: E. rostratum hyphal fragments; assay: hyphal fragment fungicidal ATP content assay (PBS, 1536-well); type: cell-based, Exserohilum rostratum; conditions: for Emax / IC50: Exserohilum rostratum; for Emax / Hyphae % Max. Resp. / Hyphae % M. Res.: 46 µM Amphotericin B = 100%; for IC50: read-out: Hyphae IC50
Procedure: (§2) Conidia and hyphae of E. rostratum were obtained as described by Richard et al., with the following modifications. Briefly, conidia were harvested from Potato Dextrose Agar (PDA) cultured media with 0.05% Tween 80, and the conidial suspension was filtered using a Cell Strainer (100 µm, BD Falcon REF 352340). After centrifugation at 700g for 10 min, the suspension was decanted and conidia were resuspended at 1×10^5 per ml in RPMI and counted in a hemocytometer. Hyphae were harvested from yeast extract peptone dextrose (YPD) culture media with 0.05% Tween 80. Hyphal fragments were sized by vortexing 15 sec twice with 0.4 mm glassbeads, and the hyphae suspension was filtered by cheese cloth twice. […] To normalize concentrations of hyphal fragments for batch to batch consistency, carbohydrate analysis was performed by a phenol-sulfuric acid method as previously described. The final stock concentration of hyphae was adjusted to 1.0 (OD490) per 100 µl.
as §1
(§3) The LOPAC library (Sigma-Aldrich) has been extensively used for HTS assay validations, [18]. The NIH Chemical Genomics Center Pharmaceutical (NPC) collection was constructed in-house through a combined effort of compound purchasing and custom synthesis and recently expanded to 4096 compounds. […] 2.5 µl/well PBS was dispensed into 1536-well plates using a Multidrop-Combi dispenser. Compound in DMSO solution was transferred in a volume of 23 nl/well using a NX-TR pintool station (WAKO Scientific Solutions, San Diego, CA). This additional PBS step for compound addition was designed to prevent the potential fungal contamination of compound libraries. The hyphal fragments in PBS were then added at 2.5 µl/well for a final seeding density of 15,000 hyphal fragments/well using the Multidrop-Combi dispenser. The final compound concentration was 46 µM in the primary screen. The assay plates were incubated for 24 h at 30°C before the detection of cellular viability with the ATP content assay. Screen of conidia was performed in a similar way except that PBS was replaced with RPMI medium and conidia were plated for a final seeding density of 250 conidia/well.
(§4) The primary screen data and curve fitting were analyzed using software developed internally at the NIH Chemical Genomics Center (NCGC). Total signals for cellular viability (100% cellular viability) were calculated from the wells with DMSO solvent and the complete cell killing (0% cellular viability) was calculated from 46 µM amphotericin B treated wells. […] All values were expressed as the mean +/− SD (n≥3).

[3] = tested on: E. rostratum conidia; assay: conidia growth inhibition ATP content assay (RPMI, 1536-well); type: cell-based, Exserohilum rostratum; conditions: for IC50: read-out: Conidia IC50; for Emax / Conidia % Max. Resp. / Conidia % M. Res.: 46 µM Amphotericin B = 100%; for Conidia IC50: Inact. = no significant activity at the highest compound concentration (46 µM)
Procedure: as §2, §1, §3, §4

[4] = Table 2, inact. = no significant activity in the primary screen, read-out: Hyphae % Max. Resp.
[5] = Table 2, 24 h, inact. = no significant activity in the primary screen
[6] = Exserohilum rostratum, 24 h, Table 2, 24 h, inact. = no significant activity at the highest compound concentration (46 µM)
[7] = Exserohilum rostratum, Table 2, inact. = no significant activity at 46 µM, read-out: Conidia % Max. Resp.
[8] = Table 2, inact. = no significant activity in the primary screen
[9] = Table 2, inact. = no significant activity at 46 µM
[10] = Table 2, 24 h, inact. = no significant activity at the highest compound concentration (46 µM)
[11] = Table S1, 46 µM Amphotericin B = 100%
[12] = Table S1, Inact. = no significant activity at the highest compound concentration (46 µM)
[13] = Table S1, Inact. = no significant activity in the primary screen
[14] = Table S1, Inact. = no significant activity at 46 µM
[15] = Table S1, Inact. = no significant activity in the primary screen, read-out: Hyphae % M. Res.
[16] = Exserohilum rostratum, Table S1, Inact. = no significant activity at 46 µM, read-out: Conidia % M. Res.

Compound | SH-SY5Y % Max. Resp. ([1]; 46 µM Amphotericin B = 100%) | SH-SY5Y % Max. Resp. [1] | Emax [2, 4] | IC50 [2, 5] | IC50 [3, 6] | Emax [3, 7] | Hyphae % Max. Resp. [2, 8] | Hyphae IC50 [2, 5] | SH-SY5Y % M. Res. [1, 11] | SH-SY5Y IC50 [1, 12] | Emax [2, 15] | also measured
N=C(N)c1ccc(OCCCCCOc2ccc(C(=N)N)cc2)cc1 [Pentamidine isethionate] | inact. | inact. | 82% | 0.468 µM | 1.11 µM | 108% | – | – | – | – | – | –
CC(=O)[O][Hg][c]1ccccc1 [Phenylmercuric acetate] | 96% | 0.417% | – | – | – | – | inact. | inact. | – | – | – | Conidia % Max. Resp. [3, 9]: 99%; IC50 [3, 10]: 0.146 µM
O=[N+]([O-])c1c(Cl)cccc1-c1c[nH]cc1Cl [Pyrrolnitrin] | inact. | inact. | 80% | 5.59 µM | 0.409 µM | 101% | – | – | – | – | – | –
Cc1cc(O)c2c(c1)O[C@@]1(C)CC[C@H]3C(C)(C)CCC[C@]34CO[C@@H]2[C@H]41 [Siccanin] | – | – | – | – | – | – | – | – | Inact. | Inact. | – | Hyphae % M. Res. [2, 13]: Inact.; Hyphae IC50 [2, 13]: Inact.; Conidia % M. Res. [3, 14]: Inact.; Conidia IC50 ([3]; Table S1): Inact.
CN(C/C=C/C#CC(C)(C)C)Cc1cccc2ccccc12 [Terbinafine] | – | – | – | – | – | – | – | – | Inact. | Inact. | 64% | IC50 [2, 13]: 34 µM; Conidia % M. Res. [3, 14]: Inact.; Conidia IC50 ([3]; Table S1): Inact.
CC(C)N1CCN(c2ccc(OCC3COC(Cn4cncn4)(c4ccc(Cl)cc4Cl)O3)cc2)CC1 (stereo not drawn) [Terconazole] | inact. | inact. | 100% | 6.12 µM | 9.06 µM | 101% | – | – | Inact. | Inact. | 100% | Emax [3, 16]: 101%
CCCCCCCCCCCCCC[N+](C)(C)C [Tetradonium bromide] | inact. | inact. | – | – | 2.44 µM | 103% | inact. | inact. | – | – | – | –
CN(C)C(=S)SC(=S)N(C)C [Tetramethylthiuram monosulfide] | – | – | – | – | – | – | – | – | Inact. | – | 59% | SH-SY5Y IC50 [1]: Inact.; IC50 [2, 13]: 67.9 µM; IC50 ([3]; Exserohilum rostratum): 3.4 µM; Emax [3, 16]: 23%
C[CH2][Hg][S]c1ccccc1C(=O)[O-].[Na+] [Thimerosal] | 96% | 2.63% | – | – | – | – | inact. | inact. | – | – | – | Conidia % Max. Resp. [3, 9]: 102%; IC50 [3, 10]: 0.139 µM
Clc1ccc(C(Cn2ccnc2)OCc2ccsc2Cl)c(Cl)c1 (stereo not drawn) [Tioconazole] | inact. | inact. | 100% | 5.97 µM | 8.55 µM | 101% | – | – | Inact. | Inact. | 100% | Emax [3, 16]: 101%
Cc1cccc(N(C)C(=S)Oc2ccc3c(c2)CCC3)c1 [Tolindate] | – | – | – | – | – | – | – | – | Inact. | Inact. | – | Hyphae % M. Res. [2, 13]: Inact.; Hyphae IC50 [2, 13]: Inact.; Conidia % M. Res. [3, 14]: Inact.; Conidia IC50 ([3]; Table S1): Inact.
O=C(Nc1ccc(Br)cc1)c1cc(Br)cc(Br)c1O [Tribromosalan] | inact. | inact. | – | – | – | – | inact. | inact. | – | – | – | Conidia % Max. Resp. [3, 9]: 99%; IC50 [3, 10]: 1.93 µM
CC1(C)CCC(=Cc2ccc(Cl)cc2)C1(O)Cn1cncn1 (stereo not drawn) [Triticonazole] | inact. | inact. | 74% | 5.82 µM | 6.95 µM | 100% | – | – | Inact. | Inact. | 74% | Emax [3, 16]: 100%
CC(C)(C)c1cc(C=C(C#N)C#N)cc(C(C)(C)C)c1O [Tyrphostin A9] | 61% | 18.6% | – | – | 1.98 µM | 100% | inact. | inact. | – | – | – | –
CC(C)(C)c1cc(/C=C(\C#N)C(N)=S)cc(C(C)(C)C)c1O [Tyrphostin AG 879] | inact. | inact. | – | – | 6.16 µM | 92% | inact. | inact. | – | – | – | –
Bleomycin sulfate | inact. | inact. | – | – | – | – | inact. | inact. | – | – | – | Conidia % Max. Resp. [3, 9]: 98%; IC50 [3]: 1.24 µM

Reference: article PMC3749181, “Rapid Identification of Antifungal Compounds against Exserohilum rostratum Using High Throughput Drug Repurposing Screens” (PLoS ONE, 2013)
